From patent US9199928B2, “Fluorescent dye for pH sensor” (SARTORIUS STEDIM BIOTECH GMBH, priority 2011, dated 2015)

melting point: 210 to 212 °C (dec.)
SMILES: NC(CCCCNS(=O)(=O)c1cc(S(=O)(=O)NCCCCC(N)C(=O)O)c2ccc3c(O)cc(O)c4ccc1c2c43)C(=O)O (stereo not shown)
